These results are taken from patent US20240409585A1, “MACROCYCLIC IMMUNOMODULATORS” (priority 2021, published 2024).

Structures are written as SMILES. Bridge positions count the residues as written; N and C are the ends. Square brackets hold non-standard residues; d marks the D form. Peptide text beside a SMILES is read from it. * marks the point of attachment. ξ: configuration not given here. Phe(4-COOH) = N[C@@H](Cc1ccc(C(=O)O)cc1)C(=O)O; Phe(4-CH2NH2) = NCc1ccc(C[C@H](N)C(=O)O)cc1; Bip = N[C@@H](Cc1ccc(-c2ccccc2)cc1)C(=O)O; Phe(3-Cl) = N[C@@H](Cc1cccc(Cl)c1)C(=O)O; dPhe(4-Br) = N[C@H](Cc1ccc(Br)cc1)C(=O)O; Phe(3-Me) = Cc1cccc(C[C@H](N)C(=O)O)c1; Val(3-OH) = CC(C)(O)[C@H](N)C(=O)O; aIle = CC[C@@H](C)[C@H](N)C(=O)O; 4Pal = N[C@@H](Cc1ccncc1)C(=O)O; 2Thi = N[C@@H](Cc1cccs1)C(=O)O; Cha = N[C@@H](CC1CCCCC1)C(=O)O; Cit = NC(=O)NCCC[C@H](N)C(=O)O; Ile(3ξ) = CCC(C)[C@H](N)C(=O)O; Thr(3ξ) = CC(O)[C@H](N)C(=O)O; NMeAbu = CC[C@H](NC)C(=O)O; Carboxymethyl = O=C(O)C*; NMeA = CN[C@@H](C)C(=O)O; Dab = NCC[C@H](N)C(=O)O; Dap = NC[C@H](N)C(=O)O; ξC = NC(CS)C(=O)O

T1 sequence (Q15116 25-288): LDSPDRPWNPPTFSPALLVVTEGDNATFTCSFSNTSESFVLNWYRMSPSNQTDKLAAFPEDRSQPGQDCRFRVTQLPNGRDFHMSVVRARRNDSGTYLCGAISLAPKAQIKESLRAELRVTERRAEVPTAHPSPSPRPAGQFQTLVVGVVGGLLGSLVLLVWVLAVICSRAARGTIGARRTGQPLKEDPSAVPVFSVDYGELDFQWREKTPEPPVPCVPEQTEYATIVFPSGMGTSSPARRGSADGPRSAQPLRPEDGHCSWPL

The first assay concerns the target T1, PE-labeled human PD-L1-Ig binding to Jurkat cell line over-expressing human PD-1 (Jurkat-PD-1) (Homo sapiens, UniProt Q15116).
T1 construct: expressed in transfected cells; host or cells: Jurkat
Kind of assay: Jurkat-PD-1 Cell Binding High-Content Screening Assay (CBA): Method 1. To be noted: Jurkat HPDL1 PD1 IC50 (uM) (Method 1), Jurkat-hPD-1 cells, PE-labeled PD-L1-Ig 20 nM final.
In the case of `CC(C)C[C@@H]1NC(=O)[C@H](CCN)NC(=O)[C@@H](CC(C)C)NC(=O)[C@H](C)N(C)C(=O)[C@H](CCCNC(=N)N)NC(=O)[C@H](Cc2ccc(-c3ccccc3)cc2)NC(=O)[C@H](C(C)C)NC(=O)[C@H](Cc2c[nH]c3ccccc23)NC(=O)[C@H](CC(=O)O)NC(=O)[C@H](Cc2ccc(O)cc2)NC(=O)[C@H](CC(N)=O)NC(=O)CSC[C@@H](C(=O)N[C@@H](C)C(N)=O)NC(=O)[C@H](CO)NC(=O)[C@H](C(C)C)NC1=O` [Compound 1054] ({CH2CO}-NYDWV[Bip]R[NMeA][dL][Dab]LVSCA-NH2; thioether N-14), the IC50 stood at 0.09 µM.

Still in this assay, the particulars now being: Jurkat-hPD-1 cells, PE-labeled PD-L1-Ig 20 nM final; read-out: Jurkat HPDL1 PD1 IC50 (uM) (Method 1).
Regarding `CC(C)C[C@@H]1NC(=O)[C@H](CCCNC(=N)N)NC(=O)[C@@H](Cc2ccc(Br)cc2)NC(=O)[C@H](C)N(C)C(=O)[C@H](CCCNC(=N)N)NC(=O)[C@H](Cc2ccc(-c3ccccc3)cc2)NC(=O)[C@H](C(C)C)NC(=O)[C@H](Cc2c[nH]c3ccccc23)NC(=O)[C@H](CC(=O)O)NC(=O)[C@H](Cc2ccc(O)cc2)NC(=O)[C@H](Cc2ccccc2)NC(=O)CSC[C@@H](C(=O)N[C@@H](C)C(N)=O)NC(=O)[C@H]([C@@H](C)O)NC(=O)[C@H](C(C)C)NC1=O` [Compound 1086] ({CH2CO}-FYDWV[Bip]R[NMeA][dPhe(4-Br)]RLVTCA-NH2; thioether N-14), the IC50 amounted to 0.69 µM.

Regarding `CC(C)C[C@@H]1NC(=O)[C@H](Cc2c[nH]c3ccccc23)NC(=O)[C@H](CC(=O)O)NC(=O)[C@H](Cc2ccc(C(=O)O)cc2)NC(=O)[C@H](Cc2ccccc2)NC(=O)CSC[C@@H](C(=O)N[C@@H](C)C(N)=O)NC(=O)[C@H](CO)NC(=O)[C@H](C(C)C)NC(=O)[C@H](CC(C)C)NC(=O)[C@H](CC(N)=O)NC(=O)[C@@H](C)NC(=O)[C@H](C)N(C)C(=O)[C@H](C(C)C)NC(=O)[C@H](Cc2ccc(-c3ccccc3)cc2)NC1=O` [Compound 1731] ({CH2CO}-F[Phe(4-COOH)]DWL[Bip]V[NMeA][dA]NLVSCA-NH2; thioether N-14), the concentration for half-maximal inhibition (IC50) is 0.01 µM.

For `Cc1cccc(C[C@@H]2NC(=O)[C@H](CC(=O)O)NC(=O)[C@H](Cc3ccc(OCC(=O)O)cc3)NC(=O)[C@H](Cc3cccs3)NC(=O)CSC[C@@H](C(=O)N[C@@H](CN)C(N)=O)NC(=O)[C@H](C(C)O)NC(=O)[C@H](C(C)(C)O)NC(=O)[C@H](CC3CCCCC3)NC(=O)[C@H](CCN)NC(=O)[C@@H](CC(C)C)NC(=O)[C@H](C)N(C)C(=O)[C@H](CCCNC(N)=O)NC(=O)[C@H](Cc3ccc(-c4ccccc4)cc3)NC(=O)[C@H](Cc3ccc(OCC(=O)O)cc3)NC2=O)c1` (stereo partly drawn) [Compound 2169] ({CH2CO}-[2Thi]Y(Carboxymethyl)D[Phe(3-Me)]Y(Carboxymethyl)[Bip][Cit][NMeA][dL][Dab][Cha][Val(3-OH)][Thr(3ξ)]C[Dap]-NH2; thioether N-14), the IC50 was 0.01 µM.

Consider `CCC(C)[C@@H]1NC(=O)[C@H](Cc2ccc(-c3ccccc3)cc2)NC(=O)[C@H](C(C)C)NC(=O)[C@H](Cc2c[nH]c3ccccc23)NC(=O)[C@H](CC(=O)O)NC(=O)[C@H](Cc2ccc(O)cc2)NC(=O)[C@H](Cc2ccncc2)NC(=O)CSCC(C(=O)N[C@@H](CCCCN)C(=O)O)NC(=O)[C@H](C(C)O)NC(=O)[C@H](C(C)C)NC(=O)[C@H](CC2CCCCC2)NC(=O)[C@H](CC(N)=O)NC(=O)[C@@H](CC(C)C)NC(=O)[C@H](C)N(C)C1=O` (stereo partly drawn) [Compound 2215] ({CH2CO}-[4Pal]YDWV[Bip][Ile(3ξ)][NMeA][dL]N[Cha]V[Thr(3ξ)][ξC]K-OH; thioether N-14), for which the IC50 amounted to 0.03 µM.

As to `CC(C)C[C@@H]1NC(=O)[C@H](CCN)NC(=O)[C@@H](CC(C)C)NC(=O)[C@H](C)N(C)C(=O)[C@H](CCCNC(=N)N)NC(=O)[C@H](Cc2ccc(-c3ccccc3)cc2)NC(=O)[C@H](C(C)C)NC(=O)[C@H](Cc2c[nH]c3ccccc23)NC(=O)[C@H](CC(=O)O)NC(=O)[C@H](Cc2cccc(Cl)c2)NC(=O)[C@H](CC(N)=O)NC(=O)CSC[C@@H](C(=O)N[C@@H](C)C(N)=O)NC(=O)[C@H]([C@@H](C)O)NC(=O)[C@H](C(C)C)NC1=O` [Compound 1316] ({CH2CO}-N[Phe(3-Cl)]DWV[Bip]R[NMeA][dL][Dab]LVTCA-NH2; thioether N-14), the IC50 was 0.05 µM.

`CC[C@@H](C)[C@@H]1NC(=O)[C@H](Cc2ccc(-c3ccccc3)cc2)NC(=O)[C@H](CC(C)C)NC(=O)[C@H](Cc2cccc(C)c2)NC(=O)[C@H](CC(=O)O)NC(=O)[C@H](Cc2ccc(OCC(=O)O)cc2)NC(=O)[C@H](CN)NC(=O)CSC[C@@H](C(N)=O)NC(=O)[C@H](CO)NC(=O)[C@H](C(C)C)NC(=O)[C@H](CC(C)C)NC(=O)[C@H](CC(N)=O)NC(=O)[C@@H](CC(C)C)NC(=O)[C@H](C)N(C)C1=O` [Compound 1640] ({CH2CO}-[Dap]Y(Carboxymethyl)D[Phe(3-Me)]L[Bip][aIle][NMeA][dL]NLVSC-NH2; thioether N-14): the IC50 was 0.1 µM.

As for `CC[C@H]1C(=O)N[C@H](CC(C)C)C(=O)N[C@@H](CCN)C(=O)N[C@@H](CC2CCCCC2)C(=O)N[C@@H](C(C)(C)O)C(=O)N[C@@H](CO)C(=O)N[C@H](C(=O)N[C@@H](CCN)C(N)=O)CSCC(=O)N[C@@H](Cc2ccncc2)C(=O)N[C@@H](Cc2ccc(OCC(=O)O)cc2)C(=O)N[C@@H](CC(=O)O)C(=O)N[C@@H](Cc2cccc(C)c2)C(=O)N[C@@H](Cc2ccc(OCC(=O)O)cc2)C(=O)N[C@@H](Cc2ccc(-c3ccccc3)cc2)C(=O)N[C@@H](Cc2ccc(OCC(=O)O)cc2)C(=O)N1C` [Compound 1837] ({CH2CO}-[4Pal]Y(Carboxymethyl)D[Phe(3-Me)]Y(Carboxymethyl)[Bip]Y(Carboxymethyl)[NMeAbu][dL][Dab][Cha][Val(3-OH)]SC[Dab]-NH2; thioether N-14), the IC50 turned out to be 0.47 µM.

Turning to `Cc1cccc(C[C@@H]2NC(=O)[C@H](CC(=O)O)NC(=O)[C@H](Cc3ccc(OCC(=O)O)cc3)NC(=O)[C@H](C(C)O)NC(=O)CSC[C@@H](C(=O)N[C@@H](CCN)C(N)=O)NC(=O)[C@H](C(C)O)NC(=O)[C@H](C(C)C)NC(=O)[C@H](CC3CCCCC3)NC(=O)[C@H](CCN)NC(=O)[C@@H](CC(C)C)NC(=O)[C@H](C)N(C)C(=O)[C@H](Cc3ccc(OCC(=O)O)cc3)NC(=O)[C@H](Cc3ccc(-c4ccccc4)cc3)NC(=O)[C@H](Cc3ccc(C(=O)O)cc3)NC2=O)c1` (stereo partly drawn) [Compound 2115] ({CH2CO}-[Thr(3ξ)]Y(Carboxymethyl)D[Phe(3-Me)][Phe(4-COOH)][Bip]Y(Carboxymethyl)[NMeA][dL][Dab][Cha]V[Thr(3ξ)]C[Dab]-NH2; thioether N-14), the 50% inhibitory concentration (IC50) came to 0.01 µM.

For the compound `CC(C)C[C@H]1NC(=O)[C@H](C)N(C)C(=O)[C@H](Cc2ccc(CN)cc2)NC(=O)[C@H](Cc2ccc(-c3ccccc3)cc2)NC(=O)[C@H](C(C)C)NC(=O)[C@H](Cc2c[nH]c3ccccc23)NC(=O)[C@H](CC(=O)O)NC(=O)[C@H](Cc2ccc(O)cc2)NC(=O)[C@H](Cc2ccncc2)NC(=O)CSC[C@@H](C(=O)N[C@@H](C)C(N)=O)NC(=O)[C@H](C(C)O)NC(=O)[C@H](C(C)C)NC(=O)[C@H](CC2CCCCC2)NC(=O)[C@H](CC(N)=O)NC1=O` (stereo partly drawn) [Compound 2048] ({CH2CO}-[4Pal]YDWV[Bip][Phe(4-CH2NH2)][NMeA][dL]N[Cha]V[Thr(3ξ)]CA-NH2; thioether N-14), the IC50 was found to be 0.03 µM.

As to `CC(C)C[C@@H]1NC(=O)[C@H](CCN)NC(=O)[C@@H](CC(C)C)NC(=O)[C@H](C)N(C)C(=O)[C@H](CCCNC(=N)N)NC(=O)[C@H](Cc2ccc(-c3ccccc3)cc2)NC(=O)[C@H](C(C)C)NC(=O)[C@H](Cc2c[nH]c3ccccc23)NC(=O)[C@H](CC(=O)O)NC(=O)[C@H](Cc2ccc(O)cc2)NC(=O)[C@H](CC(N)=O)NC(=O)CSC[C@@H](C(=O)NCC(N)=O)NC(=O)[C@H]([C@@H](C)O)NC(=O)[C@H](C(C)C)NC1=O` [Compound 1249] ({CH2CO}-NYDWV[Bip]R[NMeA][dL][Dab]LVTCG-NH2; thioether N-14), the IC50 amounted to 0.06 µM.

For the compound `CC(C)C[C@@H]1NC(=O)[C@H](Cc2c[nH]c3ccccc23)NC(=O)[C@H](CC(=O)O)NC(=O)[C@H](Cc2ccc(O)cc2)NC(=O)[C@H](Cc2ccccc2)NC(=O)CSC[C@@H](C(=O)NCC(N)=O)NC(=O)[C@H]([C@@H](C)O)NC(=O)[C@H](C(C)C)NC(=O)[C@H](CC(C)C)NC(=O)[C@H](CC(N)=O)NC(=O)[C@@H](C)NC(=O)[C@H](C)N(C)C(=O)[C@H](C(C)C)NC(=O)[C@H](Cc2ccc(-c3ccccc3)cc2)NC1=O` [Compound 1476] ({CH2CO}-FYDWL[Bip]V[NMeA][dA]NLVTCG-NH2; thioether N-14), the IC50 was 0.06 µM.

For the compound `CC(C)C[C@@H]1NC(=O)[C@H](CCN)NC(=O)[C@@H](CC(C)C)NC(=O)[C@H](C)N(C)C(=O)[C@H](CCCNC(N)=O)NC(=O)[C@H](Cc2ccc(-c3ccccc3)cc2)NC(=O)[C@H](C(C)C)NC(=O)[C@H](Cc2c[nH]c3ccccc23)NC(=O)[C@H](CC(=O)O)NC(=O)[C@H](Cc2ccc(O)cc2)NC(=O)[C@H](CN)NC(=O)CSC[C@@H](C(=O)N[C@@H](C)C(N)=O)NC(=O)[C@H]([C@@H](C)O)NC(=O)[C@H](C(C)C)NC1=O` [Compound 1345] ({CH2CO}-[Dap]YDWV[Bip][Cit][NMeA][dL][Dab]LVTCA-NH2; thioether N-14), the IC50 was 0.01 µM.

As to `CC(C)C[C@@H]1NC(=O)[C@H](Cc2c[nH]c3ccccc23)NC(=O)[C@H](CC(=O)O)NC(=O)[C@H](Cc2ccc(O)cc2)NC(=O)[C@H](Cc2ccccc2)NC(=O)CSC[C@@H](C(=O)N[C@@H](C)C(N)=O)NC(=O)[C@H](CO)NC(=O)[C@H](C(C)C)NC(=O)[C@H](CC(C)C)NC(=O)[C@H](CCN)NC(=O)[C@@H](C)NC(=O)[C@H](C)N(C)C(=O)[C@H](CCCNC(=N)N)NC(=O)[C@H](Cc2ccc(-c3ccccc3)cc2)NC1=O` [Compound 1751] ({CH2CO}-FYDWL[Bip]R[NMeA][dA][Dab]LVSCA-NH2; thioether N-14), the IC50 came to 0.03 µM.
